Results on 1 molecule are retold here after publication PMC9945734 (BMC Medicine, 2023).

The structures appear in SMILES notation.

Data set [1] has as its system PC-3 (KLF5 null) cells expressing KLF5^K369Q. Put plainly: CCK-8 cell viability assay. It is filed as cell-based, human. The settings on record: for cell number: PC-3-KQ. The method, then: According to the manufacturer's instructions, cell viability was measured using a kit from Beyotime Biotechnology. Briefly, cells were seeded onto 96-well plates at 5 × 10^3 cells per well, incubated overnight, and then treated for 48 h with drugs at 0, 0.02, 0.05, 0.14, 0.41, 1.23, 3.7, 11.1, 33.3, and 100 μM. Four drugs were analyzed: furagin, nifuratel, nitazoxanide, and retapamulin. At the end of drug treatment, the medium was removed, the CCK-8 solution was added into each well at 100 μL/well and incubated for 1.5 h at 37°C, and the optical density (OD) was measured at 450 nm using a microplate reader (BioTek).
We also tested a wider range of NTZ concentrations in PC-3-KQ and DU 145-KQ cells using the CCK-8 assay by seeding 2 × 10^3 cells and 2.5 × 10^3 cells onto each well of 96-well plates. PC-3-KQ cells were treated with NTZ at 0, 0.01, 0.1, […], 2.5, and 5 μM, while DU 145-KQ cells were treated with NTZ at 0, 0.01, 0.1, 5, 10, and 20 μM for 0, 24, 48, and 72 h. The number of viable cells was determined using the CCK-8 solution as described above.
On the technique in general: Tetrazolium dyes change colour on reduction, which living cells bring about.

In a further data set the test system is RAW264.7 cells. Description: CCK-8 cell viability assay. It is filed as cell-based. To be noted: concentrations smaller than 25 μM; 48 h.
Data set [2] relates to osteoclasts in mouse femurs. Put plainly: TRAP staining of bone tissue sections. The settings on record: compared to the vehicle group. It counts as in vivo, Balb/c nude mice. As for the experimental part:
The procedure for TRAP staining in tissues was described in our previous study. Briefly, deparaffinized and hydrated bone sections were incubated in 0.2 M acetic acid for 20 min and then in 0.2 M acetic acid containing the fast red TR salt (1.1 mg/mL) and naphthol AS-MX phosphate (0.5 mg/mL) for about 45 min at 37°C. When TRAP-positive cells turn red, as monitored using microscopy, slides were counterstained with hematoxylin and mounted with coverslips using glycerin. Slides were then scanned and analyzed as described above.

For data set [3] the following is noted: by inhibiting RANKL-induced osteoclastogenesis; cited from earlier work.

Description for RAW264.7 cells: According to the manufacturer's instructions, cell viability was measured using a kit from Beyotime Biotechnology. Briefly, cells were seeded onto 96-well plates at 5 × 10^3 cells per well, incubated overnight, and then treated for 48 h with drugs at 0, 0.02, 0.05, 0.14, 0.41, 1.23, 3.7, 11.1, 33.3, and 100 μM. […] At the end of drug treatment, the medium was removed, the CCK-8 solution was added into each well at 100 μL/well and incubated for 1.5 h at 37°C, and the optical density (OD) was measured at 450 nm using a microplate reader (BioTek).

The molecule `CC(=O)Oc1ccccc1C(=O)Nc1ncc([N+](=O)[O-])s1` [Nitazoxanide] came in with an IC50 in data set [1] (Homo sapiens, PC-3 (KLF5 null), KLF5^K369Q, CCK-8, 48 h) of 5.4 ± 0.5 µM. Besides, the cell number entry is “decreased cell number” in data set [1] (higher concentrations (up to 5 μM)) and “did not affect cell number” in data set [1] (lower concentrations (0–0.1 μM), 0 to 72 h). Also, the “cytotoxicity (cell viability)” value in the data set with RAW264.7 cells is “did not exhibit detectable cytotoxicity”. Moreover, the “number of TRAP^+ cells in mouse femurs” value in data set [2] was “significantly reduced the number of TRAP^+ cells”. In addition, the “bone loss in ovariectomized mice” value in data set [3] is reported as “reduces bone loss”.

Usually IC50 stands for the point on the concentration scale where inhibition reaches its midpoint. A low value points to inhibition by little substance.
